Calls of active or inactive are those of the source.
Legend:
[1] = A549 cell cytotoxicity, dose response, cytotoxicity control, plate reader, cherry-pick, antagonist series (AID 743412); type: functional, cell-based
[2] = biological target: T1, Leucine aminopeptidase (Plasmodium falciparum 3D7, UniProt Q8IL11); experiment: P. falciparum M17LAP inhibitors, primary screen, biochemical, fluorogenic H-Leu-NHMec substrate, 1536-well (AID 1619); type: functional
T1 sequence (Q8IL11 whole entry): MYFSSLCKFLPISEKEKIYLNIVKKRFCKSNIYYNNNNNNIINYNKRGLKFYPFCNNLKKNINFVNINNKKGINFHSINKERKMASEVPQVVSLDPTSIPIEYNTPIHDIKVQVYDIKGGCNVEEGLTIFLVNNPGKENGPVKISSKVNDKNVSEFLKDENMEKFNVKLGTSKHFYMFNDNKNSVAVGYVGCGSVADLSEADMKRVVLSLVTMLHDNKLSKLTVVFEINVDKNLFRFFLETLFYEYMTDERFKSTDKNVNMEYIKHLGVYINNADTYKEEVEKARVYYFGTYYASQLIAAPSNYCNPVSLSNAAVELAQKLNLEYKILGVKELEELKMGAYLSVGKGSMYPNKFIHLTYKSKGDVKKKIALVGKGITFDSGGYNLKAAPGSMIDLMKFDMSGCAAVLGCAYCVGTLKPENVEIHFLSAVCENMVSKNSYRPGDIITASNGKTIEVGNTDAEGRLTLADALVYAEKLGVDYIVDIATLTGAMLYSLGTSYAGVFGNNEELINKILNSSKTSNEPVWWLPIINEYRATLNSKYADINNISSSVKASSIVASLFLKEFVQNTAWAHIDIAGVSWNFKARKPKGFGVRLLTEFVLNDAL

[3] = biological target: T2, Replicative DNA helicase DnaB (Mycobacterium tuberculosis, UniProt P9WMR3); experiment: DnaB intein splicing inhibitors, dose response, biochemical, cell-free fluorescence (AID 449749); type: functional
T2 sequence (P9WMR3 whole entry): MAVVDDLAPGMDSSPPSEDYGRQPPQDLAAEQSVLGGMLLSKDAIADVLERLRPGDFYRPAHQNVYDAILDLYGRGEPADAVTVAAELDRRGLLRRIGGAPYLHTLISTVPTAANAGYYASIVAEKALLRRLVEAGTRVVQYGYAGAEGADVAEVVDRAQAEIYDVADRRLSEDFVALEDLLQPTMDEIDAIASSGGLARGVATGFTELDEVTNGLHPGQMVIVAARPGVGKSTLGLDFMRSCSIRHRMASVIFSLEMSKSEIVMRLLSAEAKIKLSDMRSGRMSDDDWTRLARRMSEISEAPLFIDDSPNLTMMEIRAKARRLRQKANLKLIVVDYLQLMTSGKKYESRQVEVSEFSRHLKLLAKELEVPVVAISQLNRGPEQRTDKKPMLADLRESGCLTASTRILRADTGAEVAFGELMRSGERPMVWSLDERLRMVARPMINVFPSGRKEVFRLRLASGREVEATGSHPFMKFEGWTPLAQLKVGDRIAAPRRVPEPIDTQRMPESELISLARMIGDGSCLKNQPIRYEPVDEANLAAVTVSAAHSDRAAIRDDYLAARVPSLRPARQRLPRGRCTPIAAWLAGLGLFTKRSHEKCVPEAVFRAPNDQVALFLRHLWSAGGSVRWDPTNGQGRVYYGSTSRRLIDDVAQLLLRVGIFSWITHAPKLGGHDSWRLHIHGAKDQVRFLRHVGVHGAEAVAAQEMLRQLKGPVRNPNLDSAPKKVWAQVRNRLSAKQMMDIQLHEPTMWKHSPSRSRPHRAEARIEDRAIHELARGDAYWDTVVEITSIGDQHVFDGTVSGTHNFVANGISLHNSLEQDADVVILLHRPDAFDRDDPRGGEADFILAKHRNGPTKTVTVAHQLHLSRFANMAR

[4] = biological target: T3, Protein RecA (Mycobacterium tuberculosis, UniProt P9WHJ3); experiment: Fluorescence Cell-Free Homogeneous Dose Retest to Identify Inhibitors of RecA-Intein Splicing Activity. [Related pubchem assays (depositor defined):AID2097, AID2223, AID489010, AID492950]; type: functional
T3 sequence (P9WHJ3 whole entry): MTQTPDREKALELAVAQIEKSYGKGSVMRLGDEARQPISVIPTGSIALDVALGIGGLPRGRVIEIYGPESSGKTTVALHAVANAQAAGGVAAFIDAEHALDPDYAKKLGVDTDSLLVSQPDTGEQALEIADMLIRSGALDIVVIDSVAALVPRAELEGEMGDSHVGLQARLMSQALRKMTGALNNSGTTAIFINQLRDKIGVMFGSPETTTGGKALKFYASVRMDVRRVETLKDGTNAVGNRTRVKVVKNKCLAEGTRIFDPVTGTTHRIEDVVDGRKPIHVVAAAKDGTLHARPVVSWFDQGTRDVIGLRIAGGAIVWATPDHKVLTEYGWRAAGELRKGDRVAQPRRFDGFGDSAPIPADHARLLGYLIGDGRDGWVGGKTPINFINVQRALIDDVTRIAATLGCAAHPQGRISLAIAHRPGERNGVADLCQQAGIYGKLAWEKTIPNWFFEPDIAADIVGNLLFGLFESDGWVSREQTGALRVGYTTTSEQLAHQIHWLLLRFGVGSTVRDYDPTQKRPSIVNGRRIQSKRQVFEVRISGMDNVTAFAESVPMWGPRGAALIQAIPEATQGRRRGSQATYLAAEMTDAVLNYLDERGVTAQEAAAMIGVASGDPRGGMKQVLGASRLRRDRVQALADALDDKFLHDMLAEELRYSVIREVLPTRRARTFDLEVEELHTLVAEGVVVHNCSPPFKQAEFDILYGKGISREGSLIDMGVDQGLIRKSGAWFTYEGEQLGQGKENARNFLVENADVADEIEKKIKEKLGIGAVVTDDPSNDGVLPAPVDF

[5] = HeLa cell cytotoxicity, dose response, cytotoxicity control for MgcRacGAP inhibitor project (AID 624300); type: functional
[6] = biological target: T4, Rac GTPase-activating protein 1 (Homo sapiens, UniProt Q9H0H5); experiment: MgcRacGAP GTPase-activating activity inhibitors, confirmation, biochemical, ADP Hunter fluorescence, primary and confirmatory (AID 624330); type: functional
T4 sequence (Q9H0H5 whole entry): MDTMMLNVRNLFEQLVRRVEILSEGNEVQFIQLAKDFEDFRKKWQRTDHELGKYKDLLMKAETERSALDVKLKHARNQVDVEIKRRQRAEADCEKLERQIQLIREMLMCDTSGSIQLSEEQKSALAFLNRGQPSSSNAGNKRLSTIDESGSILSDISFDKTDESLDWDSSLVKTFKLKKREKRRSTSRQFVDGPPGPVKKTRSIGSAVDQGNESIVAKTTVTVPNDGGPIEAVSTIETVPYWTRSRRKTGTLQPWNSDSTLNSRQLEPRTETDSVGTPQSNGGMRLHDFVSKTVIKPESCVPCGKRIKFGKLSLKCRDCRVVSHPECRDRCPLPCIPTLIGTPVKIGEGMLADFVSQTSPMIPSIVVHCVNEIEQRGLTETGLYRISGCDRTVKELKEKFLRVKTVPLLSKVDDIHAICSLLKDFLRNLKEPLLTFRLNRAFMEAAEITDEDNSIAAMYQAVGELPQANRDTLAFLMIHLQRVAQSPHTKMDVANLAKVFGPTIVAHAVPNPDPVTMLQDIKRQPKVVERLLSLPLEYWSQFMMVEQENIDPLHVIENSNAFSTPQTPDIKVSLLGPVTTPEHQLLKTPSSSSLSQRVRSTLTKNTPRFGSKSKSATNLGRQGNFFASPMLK

[7] = test system: HEK293; experiment: inhibitors of LMP1-driven NF-kB reporter, dose response, cell-based, HEK293, luciferase, cherry-pick (AID 588343); type: functional; settings: Homo sapiens
[8] = Vero E6 cell cytotoxicity, dose response, cytotoxicity control for non-replicating M. tuberculosis project, secondary assay (AID 492998); type: functional, VeroE6; settings: Vero C1008
[9] = biological target: T5, Histone-lysine N-methyltransferase NSD2 (Homo sapiens, UniProt O96028); type: biochemical
T5 sequence (O96028 whole entry): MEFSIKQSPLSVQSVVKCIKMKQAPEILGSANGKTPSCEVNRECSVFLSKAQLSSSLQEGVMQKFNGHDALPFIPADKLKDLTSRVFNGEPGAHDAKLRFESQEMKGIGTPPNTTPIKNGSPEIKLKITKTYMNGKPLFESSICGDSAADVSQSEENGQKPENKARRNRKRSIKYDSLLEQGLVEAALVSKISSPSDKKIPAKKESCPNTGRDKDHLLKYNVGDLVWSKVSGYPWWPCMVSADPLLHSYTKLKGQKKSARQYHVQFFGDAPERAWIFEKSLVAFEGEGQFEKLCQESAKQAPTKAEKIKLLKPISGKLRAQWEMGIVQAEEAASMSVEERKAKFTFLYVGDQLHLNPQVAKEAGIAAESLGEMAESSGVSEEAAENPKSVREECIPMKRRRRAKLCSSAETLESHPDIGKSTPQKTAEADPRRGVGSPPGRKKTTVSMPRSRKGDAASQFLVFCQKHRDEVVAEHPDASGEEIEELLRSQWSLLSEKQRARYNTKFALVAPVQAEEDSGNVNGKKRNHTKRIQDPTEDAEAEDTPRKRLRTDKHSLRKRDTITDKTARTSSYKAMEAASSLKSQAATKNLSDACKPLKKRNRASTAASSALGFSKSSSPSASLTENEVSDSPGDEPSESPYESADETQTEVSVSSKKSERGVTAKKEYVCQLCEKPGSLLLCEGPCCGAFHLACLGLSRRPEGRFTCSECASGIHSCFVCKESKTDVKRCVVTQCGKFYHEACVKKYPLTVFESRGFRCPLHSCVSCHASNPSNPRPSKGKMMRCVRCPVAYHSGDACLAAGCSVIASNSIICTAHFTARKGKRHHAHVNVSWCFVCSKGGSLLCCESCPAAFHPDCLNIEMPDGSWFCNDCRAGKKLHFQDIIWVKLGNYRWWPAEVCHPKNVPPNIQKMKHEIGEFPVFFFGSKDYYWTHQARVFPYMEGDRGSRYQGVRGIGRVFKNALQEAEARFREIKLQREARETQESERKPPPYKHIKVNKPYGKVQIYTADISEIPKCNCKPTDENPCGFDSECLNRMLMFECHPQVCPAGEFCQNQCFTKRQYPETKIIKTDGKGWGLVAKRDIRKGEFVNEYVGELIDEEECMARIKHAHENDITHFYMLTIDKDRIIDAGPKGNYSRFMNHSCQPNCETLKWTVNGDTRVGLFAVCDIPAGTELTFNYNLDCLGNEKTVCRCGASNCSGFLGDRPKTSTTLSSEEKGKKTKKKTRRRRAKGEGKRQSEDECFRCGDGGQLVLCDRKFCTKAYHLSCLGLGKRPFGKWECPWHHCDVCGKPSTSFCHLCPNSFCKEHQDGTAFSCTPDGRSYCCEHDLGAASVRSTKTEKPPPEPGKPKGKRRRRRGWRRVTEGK

[10] = biological target: Nonstructural protein 1 (Influenza A virus, UniProt Q194T2); type: functional, Influenza A virus (A/California/07/2009(H1N1))
Chain of Nonstructural protein 1 (Q194T2 whole entry): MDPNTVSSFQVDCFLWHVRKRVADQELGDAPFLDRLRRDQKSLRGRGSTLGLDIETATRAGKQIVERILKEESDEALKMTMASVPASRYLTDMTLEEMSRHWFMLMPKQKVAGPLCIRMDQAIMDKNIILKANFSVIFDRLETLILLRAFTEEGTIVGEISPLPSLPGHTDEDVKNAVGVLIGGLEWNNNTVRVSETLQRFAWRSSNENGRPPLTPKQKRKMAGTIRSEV

[11] = test system: H9c2; experiment: cells; type: functional, cell-based; settings: Rattus norvegicus, H9c2, Myocardium;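 further: confirmatory concentration-response retest of ultra-high-throughput screening hits for modulation of myocardial damage; cell death induced by hydrogen peroxide oxidative stress; compound pretreatment for 60 min then peroxide exposure for 2 h; potency is for protecting the cells against peroxide damage rather than for killing them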
[12] = biological target: Glucose-6-phosphate 1-dehydrogenase (Homo sapiens, UniProt P11413); experiment: human G6PD enzyme inhibitors, dose response, selectivity assay for P. falciparum G6PD inhibitor project, biochemical, fluorescence (AID 504792); type: functional
Chain of Glucose-6-phosphate 1-dehydrogenase (P11413 whole entry): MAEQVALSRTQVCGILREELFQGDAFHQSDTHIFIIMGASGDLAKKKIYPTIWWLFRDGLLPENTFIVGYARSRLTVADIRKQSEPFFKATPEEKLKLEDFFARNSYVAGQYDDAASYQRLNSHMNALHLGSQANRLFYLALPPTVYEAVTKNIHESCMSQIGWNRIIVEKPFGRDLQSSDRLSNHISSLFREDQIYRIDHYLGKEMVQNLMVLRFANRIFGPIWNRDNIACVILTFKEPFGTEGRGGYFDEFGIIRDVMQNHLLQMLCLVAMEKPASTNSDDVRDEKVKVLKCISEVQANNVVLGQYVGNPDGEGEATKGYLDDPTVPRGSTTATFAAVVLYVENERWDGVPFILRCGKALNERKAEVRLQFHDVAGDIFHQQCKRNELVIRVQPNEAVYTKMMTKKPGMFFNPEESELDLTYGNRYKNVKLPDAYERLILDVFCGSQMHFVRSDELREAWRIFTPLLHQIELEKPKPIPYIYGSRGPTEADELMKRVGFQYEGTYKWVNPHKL

[13] = biological target: Peroxisome proliferator-activated receptor gamma/Nuclear receptor coactivator 2 (Homo sapiens, UniProt P37231); type: functional;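 further: agonist potency for raising coactivator recruitment to the receptor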
Chain of Peroxisome proliferator-activated receptor gamma/Nuclear receptor coactivator 2 (P37231 whole entry): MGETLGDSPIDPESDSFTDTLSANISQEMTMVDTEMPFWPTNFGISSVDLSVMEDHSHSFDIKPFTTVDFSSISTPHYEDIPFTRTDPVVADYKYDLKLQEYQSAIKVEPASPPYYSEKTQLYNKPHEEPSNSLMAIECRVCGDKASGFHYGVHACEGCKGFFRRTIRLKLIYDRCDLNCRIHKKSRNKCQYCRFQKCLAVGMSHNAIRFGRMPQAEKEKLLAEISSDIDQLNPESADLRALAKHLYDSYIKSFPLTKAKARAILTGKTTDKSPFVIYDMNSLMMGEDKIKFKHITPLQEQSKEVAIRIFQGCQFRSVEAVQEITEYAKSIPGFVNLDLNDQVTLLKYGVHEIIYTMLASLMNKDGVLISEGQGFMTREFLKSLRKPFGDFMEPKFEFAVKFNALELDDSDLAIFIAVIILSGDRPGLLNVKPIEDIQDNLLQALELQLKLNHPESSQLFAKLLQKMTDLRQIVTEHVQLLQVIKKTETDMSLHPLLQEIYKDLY
Chain of Peroxisome proliferator-activated receptor gamma/Nuclear receptor coactivator 2 (Q15596 whole entry, further chain): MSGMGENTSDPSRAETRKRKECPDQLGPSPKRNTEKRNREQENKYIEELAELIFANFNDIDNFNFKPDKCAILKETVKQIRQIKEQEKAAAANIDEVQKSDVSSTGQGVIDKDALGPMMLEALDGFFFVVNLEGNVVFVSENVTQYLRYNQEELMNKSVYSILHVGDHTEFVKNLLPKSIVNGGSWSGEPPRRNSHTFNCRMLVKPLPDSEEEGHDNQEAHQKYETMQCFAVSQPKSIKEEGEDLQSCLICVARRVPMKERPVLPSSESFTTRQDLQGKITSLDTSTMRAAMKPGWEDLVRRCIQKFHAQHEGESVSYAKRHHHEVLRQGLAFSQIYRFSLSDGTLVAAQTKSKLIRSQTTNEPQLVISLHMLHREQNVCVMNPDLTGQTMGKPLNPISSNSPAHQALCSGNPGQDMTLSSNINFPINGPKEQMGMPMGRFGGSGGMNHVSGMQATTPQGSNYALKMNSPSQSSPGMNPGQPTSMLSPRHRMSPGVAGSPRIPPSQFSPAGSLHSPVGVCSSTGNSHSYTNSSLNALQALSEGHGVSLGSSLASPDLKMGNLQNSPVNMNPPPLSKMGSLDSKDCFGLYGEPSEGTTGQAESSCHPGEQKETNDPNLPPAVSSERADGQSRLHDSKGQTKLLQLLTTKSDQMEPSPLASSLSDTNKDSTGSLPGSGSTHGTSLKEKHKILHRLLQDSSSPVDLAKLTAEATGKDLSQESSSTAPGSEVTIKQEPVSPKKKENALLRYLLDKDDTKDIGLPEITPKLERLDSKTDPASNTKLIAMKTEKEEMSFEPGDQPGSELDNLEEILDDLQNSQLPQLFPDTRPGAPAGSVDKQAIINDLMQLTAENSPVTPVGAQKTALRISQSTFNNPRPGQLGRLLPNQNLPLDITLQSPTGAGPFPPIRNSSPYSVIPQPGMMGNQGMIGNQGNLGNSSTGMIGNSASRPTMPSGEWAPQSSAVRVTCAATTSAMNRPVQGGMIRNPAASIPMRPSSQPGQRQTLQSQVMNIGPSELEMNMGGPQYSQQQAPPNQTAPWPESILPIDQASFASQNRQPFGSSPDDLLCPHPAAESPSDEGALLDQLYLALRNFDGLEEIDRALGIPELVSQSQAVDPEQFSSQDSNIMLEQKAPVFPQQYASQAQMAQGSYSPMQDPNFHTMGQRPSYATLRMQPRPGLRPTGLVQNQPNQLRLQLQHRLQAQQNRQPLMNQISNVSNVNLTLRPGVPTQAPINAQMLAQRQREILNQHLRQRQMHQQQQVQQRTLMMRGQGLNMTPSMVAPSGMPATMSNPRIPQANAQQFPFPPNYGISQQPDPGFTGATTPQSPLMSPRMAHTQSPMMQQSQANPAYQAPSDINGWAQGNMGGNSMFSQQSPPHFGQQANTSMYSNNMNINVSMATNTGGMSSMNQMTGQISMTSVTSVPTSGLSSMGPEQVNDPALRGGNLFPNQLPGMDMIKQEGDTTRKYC

[14] = biological target: Peroxisome proliferator-activated receptor gamma/Nuclear receptor coactivator 1 (Homo sapiens, UniProt P37231); type: functional;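 further: agonist potency as compounds enhance coactivator SRC-1 recruitment to PPARgamma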
Chain of Peroxisome proliferator-activated receptor gamma/Nuclear receptor coactivator 1 (P37231 whole entry): as the sequence (P37231 whole entry) above
Chain of Peroxisome proliferator-activated receptor gamma/Nuclear receptor coactivator 1 (Q15788 whole entry, further chain): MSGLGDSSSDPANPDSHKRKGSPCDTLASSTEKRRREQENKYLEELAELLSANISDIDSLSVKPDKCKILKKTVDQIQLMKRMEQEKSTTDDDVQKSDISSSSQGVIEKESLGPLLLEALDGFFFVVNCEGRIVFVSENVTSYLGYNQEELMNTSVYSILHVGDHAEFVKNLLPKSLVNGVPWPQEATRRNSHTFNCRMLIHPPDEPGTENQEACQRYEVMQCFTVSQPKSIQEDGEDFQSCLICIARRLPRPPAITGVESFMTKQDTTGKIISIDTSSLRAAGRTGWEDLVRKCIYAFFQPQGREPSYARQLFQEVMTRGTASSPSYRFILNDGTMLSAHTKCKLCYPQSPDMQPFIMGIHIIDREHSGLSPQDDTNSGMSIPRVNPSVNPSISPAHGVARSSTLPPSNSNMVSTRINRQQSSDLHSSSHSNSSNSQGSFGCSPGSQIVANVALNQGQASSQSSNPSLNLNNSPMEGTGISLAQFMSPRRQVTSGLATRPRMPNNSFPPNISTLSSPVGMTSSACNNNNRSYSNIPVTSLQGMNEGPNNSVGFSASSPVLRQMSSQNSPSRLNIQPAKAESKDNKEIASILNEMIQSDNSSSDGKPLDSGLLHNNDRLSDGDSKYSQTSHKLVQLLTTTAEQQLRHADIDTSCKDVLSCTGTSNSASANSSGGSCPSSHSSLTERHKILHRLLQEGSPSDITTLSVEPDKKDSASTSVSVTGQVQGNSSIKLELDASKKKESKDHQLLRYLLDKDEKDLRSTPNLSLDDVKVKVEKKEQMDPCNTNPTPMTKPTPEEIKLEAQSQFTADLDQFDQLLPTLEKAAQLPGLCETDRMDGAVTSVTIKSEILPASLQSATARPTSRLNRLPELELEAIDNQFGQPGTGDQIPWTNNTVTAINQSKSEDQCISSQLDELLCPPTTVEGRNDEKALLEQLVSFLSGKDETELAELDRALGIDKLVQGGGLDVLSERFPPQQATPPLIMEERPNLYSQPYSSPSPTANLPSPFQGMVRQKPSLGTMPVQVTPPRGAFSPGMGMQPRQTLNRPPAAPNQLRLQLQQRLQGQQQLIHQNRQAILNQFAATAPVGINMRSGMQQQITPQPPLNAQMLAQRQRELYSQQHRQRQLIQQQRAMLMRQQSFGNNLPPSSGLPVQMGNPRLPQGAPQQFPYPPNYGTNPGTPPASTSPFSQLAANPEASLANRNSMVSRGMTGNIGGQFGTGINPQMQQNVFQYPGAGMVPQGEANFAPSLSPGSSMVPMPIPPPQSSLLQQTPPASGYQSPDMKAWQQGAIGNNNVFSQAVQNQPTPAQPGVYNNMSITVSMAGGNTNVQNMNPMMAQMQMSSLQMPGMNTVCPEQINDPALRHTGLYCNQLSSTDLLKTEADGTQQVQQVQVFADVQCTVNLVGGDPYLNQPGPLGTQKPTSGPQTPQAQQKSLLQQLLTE

[15] = biological target: Peroxisome proliferator-activated receptor gamma/Nuclear receptor coactivator 3 (Homo sapiens, UniProt P37231); type: functional;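 further: agonist potency for raising coactivator recruitment to the receptor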
[16] = biological target: Cytochrome P450 3A4 (Homo sapiens, UniProt P08684);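 further: CYP3A4 tested as one member of a cytochrome P450 panel screen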
[17] = P. falciparum 3D7-ScDHODH growth inhibitors, dose response, SYBR Green, dry powder samples (AID 1159570); type: functional, cell-based;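 further: parasite growth measured after 72 hours of compound exposure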
[18] = P. falciparum Dd2 growth inhibitors, dose response, SYBR Green, cherry-picked samples (AID 1159567); type: functional, cell-based
[19] = P. falciparum Dd2 growth inhibitors, dose response, SYBR Green, dry powder samples (AID 1159566); type: functional, cell-based;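 further: potency for growth inhibition with lower SYBR green DNA signal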
[20] = P. falciparum ATP4 D1247Y mutant growth inhibitors, dose response, NITD609-resistant line, SYBR Green, dry powder (AID 1159571); type: functional, cell-based;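 further: parasites synchronized at ring stage by sorbitol before testing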

Cn1nnnc1SCC(=O)N1CCN(C(=O)c2ccco2)CC1
AC50 [1]: > 52 µM (inactive)

Cc1c(Cl)cccc1NC(=O)CSCc1cc(=O)[nH][nH]1
IC50 [2]: 62.3 µM (active) | AC50 [3]: > 380 µM (inactive) | EC50 [4]: > 380 µM (inconclusive)

COc1cc(CNCCc2ccc3c(c2)OCO3)cc(OC)c1OC
CC50 [5]: 100 µM (active) | IC50 [6]: 127 µM (active)

COc1ccc(C(c2c(C)n(C)n(-c3ccccc3)c2=O)c2c(C)n(C)n(-c3ccccc3)c2=O)c(OC)c1OC
AC50 [7]: 344 µM (active)

O=C1C(C2=NC(C(=O)O)C3C(=O)N(c4ccc(Cl)cc4)C(=O)C23)=C(O)c2ccccc21 (centres undefined)
IC50 [2]: 71.6 µM (active)

Cc1ccc(C(=O)CSc2nnc[nH]2)cc1
IC50 [2]: 50.5 µM (active)

CC(C)(C)c1ccc(C(=O)N2CCCC2)s1
CC50 [8]: > 20 µM (active)

Cc1cc(SCC(=O)c2ccc(O)c(O)c2)nc2ccccc12
CC50 [5]: 100 µM (active) | IC50 [6]: 58.2 µM (active) | AC50 [9]: 6.7 µM (active)

CCOC(=O)c1ccc(N2N=C(C)/C(=C/C=C/c3ccco3)C2=O)cc1
IC50 [10]: > 100 µM (active)

COc1c(O)cccc1/C=N/NC(=O)Cn1ccnc1C
IC50 [10]: 20.4 µM (active) | IC50 [11]: > 79 µM (inactive)

Cc1[nH]c2ccccc2c1/C=N/Nc1nncn1N
IC50 [12]: 44.1 µM (inactive) | IC50 [6]: 63.7 µM (active)

CN(C)c1ccc(/N=C/C=C2\N(C)c3ccccc3C2(C)C)cc1
EC50 [13]: > 79.4 µM (not active) | EC50 [14]: > 79.4 µM (not active) | EC50 [15]: > 79.4 µM (not active) | IC50 [10]: 13.8 µM (active) | CC50 [5]: 100 µM (active) | IC50 [6]: 12.2 µM (active) | AC50 [16]: 15.8 µM (inconclusive)

COc1cccc(CN2CC3(CCN(Cc4ccccn4)CC3)c3c([nH]c4cc(OC)ccc34)[C@@H]2CO)c1
AC50 [17]: 1.71 µM (active) | AC50 [18]: 1.96 µM (active) | AC50 [19]: 1.79 µM (active) | AC50 [20]: 2.04 µM (active)
